Structures can show the parent of a compound that is named as a salt.

Usually IC50 stands for the midpoint of a concentration-inhibition curve.

Data set [1] can be described thus: Steroidomic (GC-MS/MS) analysis of hippocampal tissue after PA-G administration.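 On all read-outs here: hippocampal steroids quantified by GC-MS/MS, covering free and conjugated forms after hydrolysis, compared against intact rats and rats injected with CDX vehicle alone, five animals per group.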 The conditions noted are these: for measurable concentration in the rat brain / increase in concentration compared with basal levels: after PA-G i.p.; for fold increase in the concentration in the rat hippocampus above the basal levels / percentage of total significantly increased (5β) steroids in the rat hippocampus / concentration at 20 min: 20 min after PA-G i.p., 1 mg/kg in CDX; for concentration at 20 min: male, Wistar, rat, in vivo, ip, Steroid concentration in hippocampal tissue, PA-G-Treated (P).
Procedure: In a separate experiment, samples of the hippocampus were obtained from male albino Wistar rats in 6 experimental groups consisting of P12 and P25 animals that were either intact (I), controls (C, i.p. application of a solution of CDX), or in the experimental group (i.p. application of PA-G in a solution of CDX at a dose of 1 mg/kg). Each group consisted of 5 animals. The animals were sacrificed using ether anaesthesia (Penta, Czech Republic) 30 min after administration of the drug. The hippocampi were quickly removed, weighed, and frozen at −80 °C in sterile plastic microvials until analysis.
An amount of 17–100 mg of the hippocampal tissue was minced and then administered into screw-cap tubes. Next, 2 mL of methanol with a mixture of internal standards was added, and the samples were incubated for 1 week in a refrigerator at 4 °C with agitation for 2 min once a day. Afterwards, the extract was transferred into new screw-cap tubes and dried in a vacuum centrifuge at 45 °C. After that, 1 mL of water of chromatographic purity was added, and the samples were further treated as described in our recently published paper [76].
Briefly, the unconjugated steroids were extracted from a testing sample with diethyl-ether, the extract was dried, and the lipids were separated by partitioning between a mixture of methanol with water (4:1, v/v) and pentane. The pentane phase was discarded, and the polar phase was dried and used for further analysis of the unconjugated steroids. Steroid conjugates remaining in the polar residue after diethyl ether were hydrolyzed to their parent hydroxy steroids (unconjugated molecules) and analyzed.

The subject of data set [2] is pentylenetetrazol-induced seizures. The experiment in a line: Pentylenetetrazol (PTZ)-induced seizures in 12- and 25-day-old rats. It is filed as in vivo, male Wistar albino rats. The procedure: Solutions of PA-G and PA-S were administered intraperitoneally at a concentration of 1 mg/mL, and doses of 1, 5, 10, and 20 mg/kg were used. The solutions of zuranolone were administered intraperitoneally at a concentration of 1 mg/mL, and doses of 0.5, 1, 5, and 10 mg/kg were used. Controls were injected with CDX solution in a volume corresponding to the highest dose (i.e., 20 mL/kg). The same control group was used for PA-S and PA-G. Pentylenetetrazol (PTZ, Sigma Aldrich, Gillingham, Dorset, UK) was dissolved in water in a concentration of 50 mg/mL and was administered subcutaneously at a dose of 100 mg/kg 20 min after the administration of PA-G or PA-S. Each age and dose group comprised 8 animals. The rats were placed individually into plexiglass boxes and were then observed for 30 min after PTZ injection. The incidence, severity, and latencies of seizures were assessed. Younger animals were placed on a pad heated to 34 °C, i.e., to the temperature in the nest for the whole duration of the experiment because of immature thermoregulation. Generalized tonic-clonic or clonic seizures with a loss of righting reflexes were present after a dose of 100 mg/kg of PTZ in all control animals in both age groups. […] The severity of seizures was quantified using a five-point scale as follows: 0—no changes; 0.5—abnormal behaviour (e.g., automatisms, increased orienting reaction); 1—isolated myoclonic jerks; 2—atypical or prolonged minimal seizures; 3—clonic seizures (mS) involving head and forelimb muscles with preserved righting reflexes (older-term minimal pentetrazol seizures); 4—generalized seizures without the tonic phase (GCS); 5—complete generalized tonic-clonic seizures (GTCS).

The next data set deals with NMDARs. The conditions noted are these: NMDA-induced currents, transfected HEK293 cells; cited from earlier work.
The mark [3] stands for this setting: P12 rats, i.p. doses of 5 and 10 mg/kg.

For the compound 17α-hydroxyprogesterone, the “measurable concentration in the rat brain” value in data set [1] (1 mg/kg) was “did not detect measurable concentrations”.

Regarding `C[C@]12CC[C@@H](O)C[C@H]1CC[C@@H]1[C@@H]2[C@@H](O)C[C@]2(C)[C@@H](C(=O)CO)CC[C@@H]12` [3α,5β-THCC, 3α,5β-tetrahydrocorticosterone], the “fold increase in the concentration in the rat hippocampus above the basal levels” value (“fold increase in the concentration” below) in data set [1] (P12) was determined as 4.47 x; in data set [1] (P25) it was 1 x. Also, the “percentage of total significantly increased (5β) steroids in the rat hippocampus” value in data set [1] (P12, 1 mg/kg) is reported as “approximately 8%”; in data set [1] (P12, listed as 3α,5β-Tetrahydrocorticosterone (3α,5β-THCC), 1 mg/kg), 8.12%; in data set [1] (P25) it was “less than 0.01%”.

`C[C@H](O)[C@@]1(O)CCC2C3CC[C@@H]4C[C@H](O)CC[C@]4(C)C3CC[C@@]21C` (stereo partly drawn) [3α,17α,20α-Trihydroxy-5β-pregnane]: the entries for the “fold increase in the concentration” value in data set [1] (P12) and in data set [1] (P25) were 9.16 x and 2.39 x, respectively. The “percentage of total significantly increased (5β) steroids in the rat hippocampus” value in data set [1] (P12) was 0.74%; in data set [1] (P25), 1.05%. Further, the concentration at 20 min was determined as 5.86 ng/g in data set [1] (1 mg/kg, 12-day-old rats) and 0.951 ng/g in data set [1] (1 mg/kg, 25-day-old rats).

Consider `C[C@H](O)[C@H]1CCC2C3CC[C@@H]4C[C@H](O)CC[C@]4(C)C3CC[C@@]21C` (stereo partly drawn) [3α,20α-Dihydroxy-5β-pregnane], for which the results for the “fold increase in the concentration” value in data set [1] (P12) and in data set [1] (P25) were 78.1 x and 15.7 x, respectively. For the same compound, the “percentage of total significantly increased (5β) steroids in the rat hippocampus” value in data set [1] (P12) was 1.23%; in data set [1] (P25), 1.72%. For the same compound, the concentration at 20 min turned out to be 8.42 ng/g in data set [1] (1 mg/kg, 12-day-old rats) and 0.919 ng/g in data set [1] (1 mg/kg, 25-day-old rats).

As to `CC(=O)[C@H]1CCC2C3CC[C@@H]4CC(=O)CC[C@]4(C)C3CC[C@@]21C` (stereo partly drawn) [5β-Dihydroprogesterone, 5β-dihydroprogesterone], the “fold increase in the concentration” value in data set [1] (P12) worked out at 19 x; in data set [1] (P25) it was 1.9 x. The entries for the “percentage of total significantly increased (5β) steroids in the rat hippocampus” value in data set [1] (P12) and in data set [1] (P25) were 0.07% and 0.09%, respectively. In addition, the concentration at 20 min in data set [1] (1 mg/kg, 12-day-old rats) was 0.477 ng/g; in data set [1] (1 mg/kg, 25-day-old rats), 0.0943 ng/g.

As for `CC(=O)[C@@]1(O)CCC2C3CC[C@H]4C[C@H](O)CC[C@]4(C)C3CC[C@@]21C` (stereo partly drawn) [17-Hydroxyallopregnanolone], the concentration at 20 min came to 8.36 ng/g in data set [1] (1 mg/kg, 12-day-old rats) and 3.19 ng/g in data set [1] (1 mg/kg, 25-day-old rats).

Take `CC(=O)[C@@]1(O)CC[C@H]2[C@@H]3CC[C@@H]4C[C@H](OC(=O)[C@@H](N)CCC(=O)O)CC[C@]4(C)[C@H]3CC[C@@]21C` [17-Hydroxypregnanolone glutamate]: the “fold increase in the concentration” value in data set [1] (P12) came to 84.6 x; in data set [1] (P25), 14.7 x. Further, the results for the “percentage of total significantly increased (5β) steroids in the rat hippocampus” value in data set [1] (P12) and in data set [1] (P25) were 0.04% and 0.015%, respectively.

For `CC(=O)[C@@]1(O)CC[C@H]2[C@@H]3CC=C4CCCC[C@]4(C)[C@H]3CC[C@@]21C` [17α-hydroxypregn-5-en-20-one], the “measurable concentration in the rat brain” value in data set [1] (1 mg/kg) is “did not detect measurable concentrations”.

`C[C@H](O)[C@H]1CC[C@H]2[C@@H]3CC[C@@H]4C[C@H](OC(=O)[C@@H](N)CCC(=O)O)CC[C@]4(C)[C@H]3CC[C@]12C` [(20S)-Hydroxypregnanolone glutamate]: in data set [1] (P12), the “fold increase in the concentration” value turned out to be 99.7 x and the “percentage of total significantly increased (5β) steroids in the rat hippocampus” value was found to be 0.53%. In data set [1] (P25), the “fold increase in the concentration” value was found to be 10.2 x and the “percentage of total significantly increased (5β) steroids in the rat hippocampus” value came out at 0.93%.

For the compound `CC(=O)[C@H]1CC[C@H]2[C@@H]3CC[C@H]4C[C@H](O)CC[C@]4(C)[C@H]3CC[C@]12C` [Allopregnanolone, allopregnanolone], the concentration at 20 min stood at 0.246 ng/g in data set [1] (1 mg/kg, 12-day-old rats) and 0.144 ng/g in data set [1] (1 mg/kg, 25-day-old rats).

Regarding `C[C@]12CC[C@H](OS(=O)(=O)O)CC1=CCC1C2CC[C@@]2(C)C1CC[C@@H]2O` (stereo partly drawn) [Androstenediol sulfate, androstenediol sulfate], the concentration at 20 min in data set [1] (1 mg/kg, 12-day-old rats) was determined as 6.07 ng/g; in data set [1] (1 mg/kg, 25-day-old rats) it was 1.62 ng/g.

For `C[C@]12CC[C@H]3[C@@H](CC=C4C[C@@H](O)CC[C@@]43C)[C@@H]1CC[C@@H]2O` [Androstenediol, androstenediol], the concentration at 20 min in data set [1] (1 mg/kg, 12-day-old rats) came to 0.758 ng/g; in data set [1] (1 mg/kg, 25-day-old rats), 0.364 ng/g.

For the compound `C[C@]12CC[C@H](O)CC1=CC[C@@H]1[C@@H]2CC[C@]2(C)C(=O)CC[C@@H]12` [Dehydroepiandrosterone (DHEA), dehydroepiandrosterone], the concentration at 20 min in data set [1] (1 mg/kg, 12-day-old rats) worked out at 1.13 ng/g; in data set [1] (1 mg/kg, 25-day-old rats), 0.644 ng/g.

Take `C[C@]12CC[C@@H](O)C[C@H]1CC[C@@H]1[C@@H]2CC[C@]2(C)C(=O)CC[C@@H]12` [Etiocholanolone (ETIO), etiocholanolone]: the “percentage of total significantly increased (5β) steroids in the rat hippocampus” value amounted to 0.1% in data set [1] (P12) and 0.08% in data set [1] (P25). In addition, the “increase in concentration compared with basal levels” value in data set [1] (P12 animals, 1 mg/kg) is given as roughly 12 fold; in data set [1] (P25 animals, 1 mg/kg), roughly 2 fold.

On to `CC(=O)[C@H]1CC[C@H]2[C@@H]3CC[C@@H]4C[C@H](O)CC[C@]4(C)[C@H]3CC[C@]12C` [PA, pregnanolone], for which the “fold increase in the concentration” value in data set [1] (P12) was found to be 272 x; in data set [1] (P25), 12.8 x. Moreover, the “percentage of total significantly increased (5β) steroids in the rat hippocampus” value in data set [1] (P12) stood at 9.47%; in data set [1] (P25) it was 9.30%. In data set [1] (P12 animals, 1 mg/kg), the “increase in concentration compared with basal levels” value is reported as “up to 272 fold”. Moreover, the concentration at 20 min in data set [1] (1 mg/kg, 12-day-old rats) stood at 63.6 ng/g; in data set [1] (1 mg/kg, 25-day-old rats) it was 5.02 ng/g. For the same compound, the “percentage of the brain's total 5β-steroids in the hippocampus after PA-G administration” value in data set [1] (stated over P12 and P25 animals, 20 min after PA-G) is given as “approximately 10%”.

As for `CC(=O)[C@H]1CC[C@H]2[C@@H]3CC[C@@H]4C[C@H](OS(=O)(=O)O)CC[C@]4(C)[C@H]3CC[C@]12C` [PA-S, pyridinium 20-oxo-5β-pregnan-3α-yl sulfate], in data set [2] (P12 rats, i.p. 20 mg/kg (highest dose tested)), the “incidence of generalized seizures (GS)” value was “completely eliminated GS”. In addition, the seizure severity result in data set [2] (P12 rats, i.p. doses of 5 mg/kg and higher, 20 min before PTZ 100 mg/kg s.c.) is “significant decrease in seizure severity”. In addition, in data set [2] (setting [3]), the “latencies of GS” value is “significantly prolonged the latencies of GS” and the “tonic phase (TP) of GTCS” value is listed as “completely abolished TP”. In data set [2] (P25 rats), the “parameters of minimal seizures (mS)” value was “did not affect any parameters of mS” and the “tonic phase (TF) of GTCS” value is reported as “did not exhibit specific effects against the TF of GTCS”. Also, the “incidence of GS” value in data set [2] (P25 rats, chi2 test over dose groups, Fisher's tests no differences between individual groups) is recorded as “affected the incidence of GS”. Besides, the “seizure severity (score)” value in data set [2] (P25 rats, i.p. 20 mg/kg) is given as “lower score”. Moreover, in the data set with NMDARs, the half-maximal inhibitory concentration (IC50) was 24 µM.

With `CC(=O)[C@H]1CCC2C3CC=C4C[C@@H](O)CC[C@]4(C)C3CC[C@@]21C` (stereo partly drawn) [Pregnenolone (PE), pregnenolone], the concentration at 20 min in data set [1] (1 mg/kg, 12-day-old rats) stood at 4.69 ng/g; in data set [1] (1 mg/kg, 25-day-old rats) it was 3.44 ng/g.

(Values after article PMC8780580, “The Neuroactive Steroid Pregnanolone Glutamate: Anticonvulsant Effect, Metabolites and Its Effect on Neurosteroid Levels in Developing Rat Brains” (Pharmaceuticals, 2021).)
